Earlier results as cited in patent publication US20060079522A1, “Amino substituted aryloxybenzylpiperidine derivatives” (priority 2004, published 2006).
Like-named read-outs stand apart in the source and are kept apart here.

What was measured:
MCH1 receptor [1] = biological target: T1, MCH1 receptor (Rattus norvegicus, UniProt P97639); conditions: rat social interaction
T1 construct: SNAP-7941, a selective MCH1 small molecule antagonist, was evaluated in several animal models; host or cells: living rats (endogenous receptor)
T1 sequence (P97639 whole entry): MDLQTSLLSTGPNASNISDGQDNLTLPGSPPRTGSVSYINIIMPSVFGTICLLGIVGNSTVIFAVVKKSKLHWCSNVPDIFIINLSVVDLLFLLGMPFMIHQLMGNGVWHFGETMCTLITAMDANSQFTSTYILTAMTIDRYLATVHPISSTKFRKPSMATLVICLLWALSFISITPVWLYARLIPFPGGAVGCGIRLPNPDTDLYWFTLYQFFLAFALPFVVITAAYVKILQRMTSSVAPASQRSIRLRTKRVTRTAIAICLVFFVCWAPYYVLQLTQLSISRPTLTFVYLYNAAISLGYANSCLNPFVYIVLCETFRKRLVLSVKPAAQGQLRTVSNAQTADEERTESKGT

MCH1 receptor [2] = conditions: guinea pig maternal-separation vocalization
MCH1 receptor [3] = biological target: T1, MCH1 receptor; conditions: rat forced-swim

SMILES: COCC1=C(C(=O)OC)[C@H](c2ccc(F)c(F)c2)N(C(=O)NCCCN2CCC(c3cccc(NC(C)=O)c3)CC2)C(=O)N1 [SNAP-7941]
- profile in behavioral model of depression and/or anxiety (MCH1 receptor [1]): profile similar to clinically used anti-depressants and anxiolytics
- profile in behavioral model of depression and/or anxiety (MCH1 receptor [2]): profile similar to clinically used anti-depressants and anxiolytics
- profile in behavioral model of depression and/or anxiety (MCH1 receptor [3]): profile similar to clinically used anti-depressants and anxiolytics
